# The supplement of paper PMC10307832
# What was measured:
# Experiment in all cases: relative viability (nuclei count vs DMSO), 5 days (fraction); higher = more cells survive
# Crizotinib + Dasatinib = compound: C[C@@H](Oc1cc(-c2cnn(C3CCNCC3)c2)cnc1N)c1c(Cl)ccc(F)c1Cl [Crizotinib] + Cc1nc(Nc2ncc(C(=O)Nc3c(C)cccc3Cl)s2)cc(N2CCN(CCO)CC2)n1 [Dasatinib] (partner 0.075 µM)
# In short: (§1)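 For relative viability, nuclei counts in treated wells were divided by those in vehicle wells. Lung cancer cell lines had been pin-tool dosed in 1536-well plates the day after seeding and cultured for 5 days, then fixed and stained in one step (final 0.05% Triton X-100, 1% formaldehyde, 1 ug/ml Hoechst) and imaged at 4×. Doses were one drug alone or a fixed anchor-drug dose plus five library-drug doses (not always all listed) in √10 steps, and values are duplicate-plate medians.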
# Olaparib + Palbociclib = compound: O=C(c1cc(Cc2n[nH]c(=O)c3ccccc23)ccc1F)N1CCN(C(=O)C2CC2)CC1 [Olaparib] + CC(=O)c1c(C)c2cnc(Nc3ccc(N4CCNCC4)cn3)nc2n(C2CCCC2)c1=O [Palbociclib] (partner 0.5 µM)
# In short: as §1
# Olaparib + Luminespib = compound: O=C(c1cc(Cc2n[nH]c(=O)c3ccccc23)ccc1F)N1CCN(C(=O)C2CC2)CC1 [Olaparib] + CCNC(=O)c1noc(-c2cc(C(C)C)c(O)cc2O)c1-c1ccc(CN2CCOCC2)cc1 [Luminespib] (partner 0.01 µM)
# In short: as §1
# Olaparib + Dasatinib = compound: O=C(c1cc(Cc2n[nH]c(=O)c3ccccc23)ccc1F)N1CCN(C(=O)C2CC2)CC1 [Olaparib] + Cc1nc(Nc2ncc(C(=O)Nc3c(C)cccc3Cl)s2)cc(N2CCN(CCO)CC2)n1 [Dasatinib] (partner 0.075 µM)
# In short: as §1
Cell Line,relative viability (Crizotinib + Dasatinib; first compound 0.01 µM),relative viability (Crizotinib + Dasatinib; first compound 0.03162 µM),relative viability (Crizotinib + Dasatinib; first compound 0.1 µM),relative viability (Crizotinib + Dasatinib; first compound 0.3162 µM),relative viability (Crizotinib + Dasatinib; first compound 1 µM),relative viability (Olaparib + Palbociclib; first compound 0.08 µM),relative viability (Olaparib + Palbociclib; first compound 0.253 µM),relative viability (Olaparib + Palbociclib; first compound 2.53 µM),relative viability (Olaparib + Palbociclib; first compound 8 µM),relative viability (Olaparib + Luminespib; first compound 0.08 µM),relative viability (Olaparib + Luminespib; first compound 0.253 µM),relative viability (Olaparib + Luminespib; first compound 2.53 µM),relative viability (Olaparib + Luminespib; first compound 8 µM),relative viability (Olaparib + Dasatinib; first compound 0.08 µM),relative viability (Olaparib + Dasatinib; first compound 0.253 µM),relative viability (Olaparib + Dasatinib; first compound 2.53 µM),relative viability (Olaparib + Dasatinib; first compound 8 µM)
LCLC-97TM1,0.827,0.763,0.784,0.816,0.846,0.24,0.226,0.206,0.166,0.756,0.651,0.712,0.637,0.871,0.789,0.857,0.776
LCLC-103H,0.479,0.418,0.416,0.497,0.484,0.524,0.455,0.513,0.494,1.21,0.805,1.19,0.769,0.61,0.49,0.445,0.532
LK-2,0.369,0.338,0.253,–,0.285,0.697,0.723,0.888,0.697,0.176,0.212,0.214,0.181,0.27,0.329,0.271,0.225
LOU-NH91,0.523,0.547,0.623,0.554,0.486,0.55,0.538,0.526,0.533,0.341,0.36,0.346,0.332,0.6,0.473,0.525,0.589
LU99A,0.434,0.565,0.501,0.55,0.566,0.45,0.392,0.31,0.323,0.249,0.254,0.21,0.206,0.624,0.467,0.506,0.228
LXF-289,0.306,0.209,0.223,0.184,0.247,0.635,0.6,0.684,0.689,0.784,0.635,0.721,0.567,0.217,0.172,0.196,0.171
NCI-H23,0.763,0.83,0.645,–,0.742,0.586,0.542,0.475,0.5,0.229,0.211,0.2,0.186,0.922,0.802,0.61,0.488
NCI-H322M,0.23,0.251,0.232,0.262,0.263,0.468,0.408,0.515,0.462,0.98,0.821,0.906,0.527,0.251,0.231,0.248,0.252
NCI-H358,0.137,0.163,0.147,0.151,0.156,0.124,0.137,0.125,0.14,0.324,0.253,0.24,0.206,0.152,0.181,0.167,0.146
NCI-H441,0.531,0.524,0.497,–,0.51,0.268,0.257,0.234,0.243,0.38,0.314,0.318,0.281,0.818,0.542,0.651,0.589
NCI-H460,0.358,0.521,0.478,0.424,0.479,0.0979,0.0831,0.0723,0.0812,0.0349,0.0392,0.0354,0.034,0.471,0.464,0.32,0.178
NCI-H520,0.19,0.192,0.2,0.271,0.155,0.239,0.207,0.179,0.152,0.205,0.277,0.255,0.23,0.176,0.178,0.189,0.153
NCI-H522,0.945,–,0.875,0.938,0.944,1.14,0.859,0.87,0.889,1.23,1.09,0.781,0.824,0.913,0.884,0.846,0.782
NCI-H596,0.634,0.594,0.677,0.658,0.722,–,–,–,–,0.93,0.883,0.788,0.638,0.597,0.68,0.583,0.454
NCI-H647,0.148,0.172,0.131,0.191,0.17,0.431,0.331,0.321,0.381,0.126,0.186,0.15,0.121,0.249,0.181,0.189,0.175
NCI-H650,0.472,0.434,0.512,0.388,0.406,0.324,0.312,0.311,0.227,0.924,0.816,0.577,0.533,0.478,0.428,0.424,0.372
NCI-H661,0.811,–,0.899,0.809,0.98,0.384,0.383,0.389,0.362,1.02,0.869,0.878,0.619,0.801,0.769,0.7,0.715
NCI-H727,–,0.398,0.348,–,0.341,0.655,0.601,0.618,0.561,0.446,0.531,0.461,0.346,0.439,0.405,0.469,0.324
NCI-H1563,0.462,0.443,0.453,0.444,0.461,–,–,–,–,1.21,0.475,0.538,0.481,0.485,0.516,0.465,0.42
NCI-H1623,0.455,0.502,0.499,0.454,0.505,–,–,–,–,0.492,0.484,0.384,0.331,0.568,0.504,0.6,0.494
NCI-H1648,–,–,–,–,–,0.236,0.305,–,0.246,–,–,–,–,–,–,–,–
